Source: patent US10993920B2, “2-dodecyl-6-methoxycyclohexa-2,5-diene-1,4-dione as a cancer therapeutic” (MIDDLE TENNESSEE STATE UNIVERSITY, priority 2014, dated 2021)

Tests used:
caspase 8 in MCF-7 cells = experiment: Caspase-Glo 8 activation assay; format: cell-based, human; conditions: MCF-7, 4 h, depending on the concentration
Description: (§1) Caspase 3/7 and caspase 8 activities were analyzed using an in-situ luminescent maker in MCF-7 and BT20 cells respectively. Cells were seeded in a white 96-well plate (Greiner), treated with 100 μM DMDD for 4 h. Caspases activity was then determined using the Caspase-Glo 3/7 Assay (Promega) or the Caspase-Glo 8 Assay (Promega) according to the manufacturer's instructions. Briefly, cells were incubated with Caspase-Glo 3/7 substrate or Caspase-Glo 8 substrate and the luminescence of each sample was measured using a SpectraMax M2e Microplate Reader (Molecular Devices).

caspase 8 in BT20 cells = experiment: Caspase-Glo 8 activation assay; format: cell-based, human; conditions: BT20, 4 h, depending on the concentration
Description: as §1

Structure (SMILES): CCCCCCCCCCCCC1=CC(=O)C=C(OC)C1=O [DMDD, 2-dodecyl-6-methoxycyclohexa-2,5-diene-1,4-dione]
- caspase 8 activity increase (caspase 8 in MCF-7 cells): 2-5 fold
- caspase 8 activity increase (caspase 8 in BT20 cells): 2-5 fold
